From patent US20070014718A1, “Kits for gastric emptying measurement” (Atomic Energy Council - Institute of Nuclear Energy Research, priority 2005, published 2007)
Where two headings read alike, the source gives them in different places.

Legend:
[1] = In-vitro gastric simulation: isotope tracer retention in solid phase of test meal; type: in vitro ADME; conditions: mimic gastric fluid
Procedure: After chewing the test meal, it is put into a semi-permeable membrane (Spectra/PorMembrane MWCO 3,500, 54 mm×150 mm) incubated and shook with a simulated gastric juice (2 g (gram) of sodium chloride; 3.2 g of pepsin; and, 7 mL of HCl in 1000 mL, pH 1.2) at 37±2° C. having different time intervals. 5 mL aliquot of the liquid phase were removed at regular 60 min intervals, centrifuged and aliquots of the supernatants removed for C-13 glycine quantification with Liquid Chromatography/Mass Spectrometry.
To assess the extent of Tc-99 m phytate retention in the solid phase of the test meal, a simulated gastric digest is made. A muffin is prepared as described above with 1 mCi of a Tc-99 m phytate, which is equivalent to 156.25 μg (microgram) with a specific activity of 10.06 mCi/μmol (μmol, micromolar) mixed with the dry mix 1 and water. […] 5 mL aliquot of the liquid phase were removed at regular 60 min intervals, centrifuged and aliquots of the supernatants removed for liquid scintillation counting Results are then expressed as a percentage, P %, of the initial amount of a radioactivity added. […]

[2] = Shelf-life / chemical stability on storage; type: physicochemical; conditions: stored at a room temperature
Source text: Please refer to FIG. 1 and FIG. 2, which are views showing a kit for a gastric emptying measurement and isotope tracer retention in a solid phase of a test meal, according to the present invention, where isotope tracer retention percentage is obtained in FIG. 2 in vitro gastric digest at pH 2.3 to imitate the gastric condition after administering the test meal. […] A standardized recipe is provided to clinicians in the test meal, which has fixed proportions of carbohydrate, protein, and fat. The raw ingredients in the test meal include a lyophilized egg flour. The characteristic is that the isotope tracer 2 is coagulated with albumin of the egg flour into a solid form at more than 75° C., which means the isotope tracer is well incorporated into a food product. More than 90% of the isotope tracer is retained in a mimic gastric fluid at 35˜39° C. for three hours. […] More than 98% of the Tc-99 m phytate is retained in a mimic gastric fluid at 35˜39° C. for 4 hours. More than 90% of the Tc-99 m DTPA is retained in a mimic gastric fluid at 35˜39° C. for 3 hours The dry mix 1 comprises egg powder (7.4%), all purpose flour (19.6%), glutinous rice powder (3.9%), whole milk powder (35.7%), levulose (fructose) flour (8%), foaming powder (3%), cream powder (22%), cream fragrance powder (0.2%), and salt (0.2%), having a most preferred calorie of about 289.5±12.5 kcal. […]

[3] = for % ^13C (dose/hr): breath, patient X, 50 mg
Procedure: The test meal is administered after an overnight fast along with 100 mL of water within 10 minutes. The first one of the breath samples is collected before the test meal is administered so that a baseline is obtained. And the rest of the breath samples are collected with an 15-minute intervals during 4 hours after the test meal is administered. A measurement can be conveniently done using an isotope ratio mass spectrometer. The results obtained are then expressed in a δ^13C value (^13C/^12C). […] The ^13CO2 excretion parameters are derived from the chi-square distribution in statistics and the equation is expressed as follows. CD=m(1−e^−kt)^β , where CD is the cumulative percentage of the administered dose; t is the time; and, m is the total cumulative percentage of the dose recovered.
A non-linear regression analysis is performed on the originally measured data to obtain values of the m, k, and β for each individual breath test.
The half emptying time is calculated by making CD equal to m/2 in the CD equation: [formula] B. Lag Phase:
The lag phase for the breath test has been defined, which is expressed as follows: tlag=1/k ln β
The % ^13C dose/hr is calculated by the following equation Eq. 1: [formula] • The definition of mmol ^13C excess in breath (a) and mmol ^13C excess administered (b) were shown below: [formula] • 0.0112372 is the ratio of ^13C/^12C of PDB • % ^13Ct and % ^13Ct0: the concentration of ^13C at time t and t0 (i.e. time zero) • δt=δ^13C value at time t (% ^13Ct−% ^13Ct0) is also called “^13C atom percent excess” [formula] • % ^13Csubstr.=% ^13C present in substrate • M=molar mass of substrate • m=amount of substrate • n=number of atoms, ^13C-labelled • (13) The % ^13C cumulative dose is derived numerically from the % ^13C dose/hr data and is calculated from the following Eq. 2, which informs about the global process. [formula] • n=number of samples per hour • n=4, if a breath sample is taken every 15 minutes • ti=time i
• (14) Mathematically analyzing the ^13CO2 excretion curves with a Sigma plot software. […] All of these parameters were determined by a non-linear regression analysis. The half emptying time is calculated by making CD equal to m/2 in the CD equation and being defined by [formula] • . […] The lag phase for the breath test is expressed as tlag=1/k ln β (Eq. 4).

For `O=C([O-])CN(CCN(CC(=O)[O-])CC(=O)[O-])CCN(CC(=O)[O-])CC(=O)[O-].[99Tc+4]` [Tc-99 m DTPA, Tc-99 m DTPA (diethyl-triamine-pentaacetic acid)], the “isotope tracer retained (incorporated) in the test meal” value ([1]; 35˜39° C. (37±2° C.), 4 hours) was “more than 87%” and the “isotope tracer retained in the test meal” value ([1]; 35˜39° C., 3 hours) was “More than 90%”.
For `NC[13C](=O)O` [^13C glycine], the shelf-life [2] was “more than 5 year”, the “% ^13C (dose/hr)” value ([3]; sampling time 15 min) was 1.104 % ^13C dose/hr and the “% ^13C (dose/hr)” value ([3]; sampling time 30 min) was 2.802 % ^13C dose/hr. The “% ^13C (dose/hr)” value ([3]; sampling time 45 min) was 3.905 % ^13C dose/hr, the “% ^13C (dose/hr)” value ([3]; sampling time 60 min) was 4.754 % ^13C dose/hr and the “% ^13C (dose/hr)” value ([3]; sampling time 75 min) was 5.603 % ^13C dose/hr. The “% ^13C (dose/hr)” value ([3]; sampling time 90 min) was 5.093 % ^13C dose/hr, the “% ^13C (dose/hr)” value ([3]; sampling time 105 min) was 5.857 % ^13C dose/hr and the “% ^13C (dose/hr)” value ([3]; sampling time 120 min) was 6.027 % ^13C dose/hr. For the same compound, the “% ^13C (dose/hr)” value ([3]; sampling time 135 min) was 6.706 % ^13C dose/hr, the “% ^13C (dose/hr)” value ([3]; sampling time 150 min) was 5.857 % ^13C dose/hr and the “% ^13C (dose/hr)” value ([3]; sampling time 165 min) was 5.263 % ^13C dose/hr. For the same compound, the “% ^13C (dose/hr)” value ([3]; sampling time 180 min) was 4.414 % ^13C dose/hr, the “% ^13C (dose/hr)” value ([3]; sampling time 195 min) was 3.65 % ^13C dose/hr and the “% ^13C (dose/hr)” value ([3]; sampling time 210 min) was 3.65 % ^13C dose/hr. For the same compound, the “% ^13C (dose/hr)” value ([3]; sampling time 225 min) was 3.056 % ^13C dose/hr, the “% ^13C (dose/hr)” value ([3]; sampling time 240 min) was 2.547 % ^13C dose/hr and the k ([3]; human, in vivo) was 0.0101. For the same compound, the “m (total cumulative percentage of the dose recovered)” value ([3]; human, in vivo) was 22.844 and the β ([3]; human, in vivo) was 2.8256.
